According to patent US8835428B2, “Diacylglycerol acyltransferase inhibitors” (Piramal Enterprises Limited, priority 2008, dated 2014):

Molecular target: T1, hDGAT1 (Homo sapiens, UniProt O75907)
T1 construct: host or cells: Sf9 insect cells (baculovirus); microsomal preparation
T1 sequence (O75907 1-488): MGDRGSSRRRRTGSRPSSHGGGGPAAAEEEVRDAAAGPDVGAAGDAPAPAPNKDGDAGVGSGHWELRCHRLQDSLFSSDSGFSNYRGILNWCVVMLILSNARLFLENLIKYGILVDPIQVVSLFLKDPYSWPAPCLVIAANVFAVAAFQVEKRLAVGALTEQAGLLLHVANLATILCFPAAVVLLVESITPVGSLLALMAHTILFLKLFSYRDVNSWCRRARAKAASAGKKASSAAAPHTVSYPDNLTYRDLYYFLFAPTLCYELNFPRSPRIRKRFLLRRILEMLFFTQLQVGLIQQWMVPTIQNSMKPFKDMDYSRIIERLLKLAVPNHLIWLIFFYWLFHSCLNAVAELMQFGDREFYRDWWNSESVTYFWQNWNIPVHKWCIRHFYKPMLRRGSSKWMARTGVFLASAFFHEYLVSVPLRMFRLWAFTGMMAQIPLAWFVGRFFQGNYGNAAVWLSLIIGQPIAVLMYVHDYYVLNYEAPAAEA
Experiment: In-vitro DGAT1 assay (hDGAT1 microsomes from Sf9 cells, 14C oleoyl CoA, triglyceride formation)
Assay type: biochemical
Summary of the method: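 Compounds tested in duplicate at 10, 5 and 1 μM for 10 min at 37 °C. Reaction: Sf9-expressed hDGAT1 microsomes (2.5–10 μg), [14C]oleoyl-CoA plus 409.5–1638 μM dioleoylglycerol, pH 7.4 Tris-HCl with fatty-acid-free BSA. Radiolabelled triglyceride extracted into heptane and scintillation-counted.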

Compound: COC(=O)[C@@H](NC(=O)c1nc(-c2ccc(NC(=O)Nc3ccc(C)cc3)cc2)no1)C(C)C [Example 346, (S)-Methyl 3-methyl-2-(3-(4-(3-p-tolylureido)phenyl)-1,2,4-oxadiazole-5-carboxamido)butanoate]
- inhibition at 5 µM (At 5 μM): 50 to 75%

Compound: COC(=O)[C@@H](NC(=S)c1c(-c2ccc(Nc3nc4ccc(F)cc4s3)cc2)noc1-c1ccccc1)C(C)C [Example 72, (S)-2-({3-[4-(6-Fluoro-benzothiazol-2-ylamino)-phenyl]-5-phenyl-isoxazole-4-carbothioyl}-amino)-3-methyl-butyric acid methyl ester]
- inhibition at 10 µM (At 10 μM): 0 to 50%

Compound: Cc1cc(-c2cc(C(=O)NC(C(=O)O)C(C)C)on2)ccc1NC(=O)Nc1c(F)cccc1F (stereo not shown) [Example 98, 2-(3-(4-(3-(2,6-Difluorophenyl)ureido)-3-methylphenyl)isoxazole-5-carboxamido)-3-methylbutanoic acid]
- inhibition at 10 µM (At 10 μM): 50 to 75%

Compound: CC(C)C[C@H](NC(=O)c1cc(-c2ccc(NC(=O)Nc3ccc(F)cc3)cc2)no1)C(=O)O [Example 87, (S)-2-[(3-{4-[3-(4-Fluoro-phenyl)-ureido]-phenyl}-isoxazole-5-carbonyl)-amino]-4-methyl-pentanoic acid]
- inhibition at 10 µM (At 10 μM): 75 to 100%

Compound: CC(C)[C@H](NC(=O)c1nc(-c2ccc(NC(=O)Nc3ccccc3F)cc2)no1)C(=O)O [Example 349, (S)-2-(3-(4-(3-(2-Fluorophenyl)ureido)phenyl)-1,2,4-oxadiazole-5-carboxamido)-3-methylbutanoic acid]
- inhibition at 5 µM (At 5 μM): 50 to 75%

Compound: COC(=O)[C@@H](NC(=O)c1cc(-c2ccc(NC(=O)Nc3ccc(F)cc3)c(F)c2)no1)C(C)C [Example 96]
- % inhibition of hDGAT1 (At 10 μM): ++ (>50% Inhibition ≦75)

Compound: CC(C)[C@H](NC(=O)c1nc(-c2ccc(NC(=O)Nc3ccc(F)cc3)cc2)no1)C(=O)O [Example 343, (S)-2-(3-(4-(3-(4-Fluorophenyl)ureido)phenyl)-1,2,4-oxadiazole-5-carboxamido)-3-methylbutanoic acid]
- inhibition at 5 µM (At 5 μM): 50 to 75%

Compound: CCOC(=O)c1cc(-c2cccc(Nc3nc4ccc(F)cc4s3)c2)no1 [Example 20, 3-[3-(6-Fluoro-benzothiazol-2-ylamino)-phenyl]-isoxazole-5-carboxylic acid ethyl ester]
- inhibition at 10 µM (At 10 μM): 0 to 50%

Compound: COC[C@H](NC(=NO)c1cc(-c2ccc(Nc3nc4ccc(F)cc4s3)cc2)no1)C(=O)OC [Example 16, (S)-2-({3-[4-(6-Fluoro-benzothiazol-2-ylamino)-phenyl]-N-hydroxy-isoxazole-5-carboximidoyl}-amino)-3-methoxy-propionic acid methyl ester]
- inhibition at 10 µM (At 10 μM): 50 to 75%

Compound: COc1ccc(NC(=O)Nc2ccc(-c3cc(C(=O)NC(C(=O)O)C(C)C)on3)cc2)cc1 (stereo not shown) [Example 128, 2-(3-(4-(3-(4-Methoxyphenyl)ureido)phenyl)isoxazole-5-carboxamido)-3-methylbutanoic acid]
- inhibition at 10 µM (At 10 μM): 75 to 100%

Compound: COC[C@H](NC(=O)c1cc(-c2ccc(Nc3nc4ccc(F)cc4s3)cc2)no1)C(=O)OC [Example 12, (S)-2-({3-[4-(6-Fluoro-benzothiazol-2-ylamino)-phenyl]-isoxazole-5-carbonyl}-amino)-3-methoxy-propionic acid methyl ester]
- inhibition at 10 µM (At 10 μM): 50 to 75%

Compound: CC(C)[C@H](NC(=O)c1cc(-c2ccc(NC(=O)NC3CCCCC3)cc2)no1)C(=O)O [Example 81, (S)-2-({3-[4-(3-cyclohexyl-ureido)-phenyl]-isoxazole-5-carbonyl}-amino)-3-methyl-butyric acid]
- inhibition at 10 µM (At 10 μM): 75 to 100%

Compound: COC(=O)C(NC(=O)c1cc(-c2ccc(NC(=O)Nc3ccccc3C)cc2)no1)C(C)C (stereo not shown) [Example 153, Methyl 3-methyl-2-(3-(4-(3-o-tolylureido)phenyl)isoxazole-5-carboxamido) butanoate]
- % inhibition of hDGAT1 (At 5 μM): + (>0% Inhibition ≦50)

Compound: O=C(Nc1ccc(F)cc1)Nc1ccc(-c2cc(C(=O)NC3(C(=O)O)CCCC3)on2)cc1 [Example 120, 1-(3-(4-(3-(4-fluorophenyl)ureido)phenyl)isoxazole-5-carboxamido) cyclopentanecarboxylic acid]
- inhibition at 10 µM (At 10 μM): 50 to 75%

Compound: CC(C)[C@@H](C(=O)O)N(C)C(=O)c1cc(-c2ccc(NC(=O)Nc3cccc(C(F)(F)F)c3)cc2)no1 [Example 310, (S)-3-methyl-2-(N-methyl-3-(4-(3-(3-(trifluoromethyl)phenyl)ureido)phenyl)isoxazole-5-carboxamido)butanoic acid]
- inhibition at 1 µM: 50 to 75%

Compound: COC(=O)[C@H](C(C)C)N(C)C(=O)c1cc(-c2ccc(NC(=O)Nc3ccc(F)cc3)cc2)no1 [Example 307, (S)-methyl 2-(3-(4-(3-(4-fluorophenyl)ureido)phenyl)-N-methylisoxazole-5-carboxamido)-3-methylbutanoate]
- inhibition at 1 µM: 50 to 75%

Compound: CC(C)C(NC(=O)c1cc(-c2ccc(NC(=O)[C@H](O)c3ccccc3)cc2)no1)C(=O)O (stereo partly drawn) [Example 341, 2-(3-(4-((R)-2-hydroxy-2-phenylacetamido)phenyl)isoxazole-5-carboxamido)-3-methylbutanoic acid]
- inhibition at 1 µM: 0 to 50%

Compound: COC(=O)[C@@H](NC(=O)c1cc(-c2ccc(NC(=S)Nc3ccc(C)cc3)cc2)no1)C(C)C [Example 271, (S)-Methyl 3-methyl-2-(3-(4-(3-p-tolylthioureido)phenyl)isoxazole-5-carboxamido)butanoate]
- inhibition at 5 µM (At 5 μM): 0 to 50%

Compound: Cc1cc(C)cc(NC(=O)Nc2ccc(-c3cc(C(=O)N[C@H](C(=O)O)C(C)C)on3)cc2)c1 [Example 205, (S)-2-(3-(4-(3-(3,5-dimethylphenyl)ureido)phenyl)isoxazole-5-carboxamido)-3-methylbutanoic acid]
- inhibition at 1 µM: 50 to 75%

Compound: CC(C)C(NC(=O)c1cc(-c2ccc(NC(=O)C(=O)Nc3cccc(C(F)(F)F)c3)cc2)no1)C(=O)O (stereo not shown) [Example 337, 3-Methyl-2-(3-(4-(2-oxo-2-(3-(trifluoromethyl)phenylamino)acetamido)phenyl)isoxazole-5-carboxamido)butanoic acid]
- inhibition at 1 µM: 0 to 50%

Compound: COC(=O)[C@H](CC(C)C)NC(=O)c1onc(-c2ccc(Nc3nc4ccc(F)cc4s3)cc2)c1-c1ccccc1 [Example 94, (S)-2-({3-[4-(6-Fluoro-benzothiazol-2-ylamino)-phenyl]-4-phenyl-isoxazole-5-carbonyl}-amino)-4-methyl-pentanoic acid methyl ester]
- inhibition at 10 µM (At 10 μM): 0 to 50%

Compound: Cc1cc(NC(=O)Nc2ccc(F)cc2)ccc1-c1cc(C(=O)NC(C(=O)O)C(C)C)on1 (stereo not shown) [Example 134, 2-(3-(4-(3-(4-fluorophenyl)ureido)-2-methylphenyl)isoxazole-5-carboxamido)-3-methylbutanoic acid]
- inhibition at 10 µM (At 10 μM): 75 to 100%

Compound: COC(=O)C(NC(=O)c1cc(-c2ccc(NC(=O)Nc3cccc(C(F)(F)F)c3)cc2)no1)C(C)C (stereo not shown) [Example 277, Methyl 3-methyl-2-(3-(4-(3-(3-(trifluoromethyl)phenyl)ureido)phenyl)isoxazole-5-carboxamido)butanoate]
- inhibition at 5 µM (At 5 μM): 0 to 50%

Compound: CC(C)C(NC(=O)c1cc(-c2ccc(NC(=O)Nc3cccc(C(F)(F)F)c3)cc2)no1)C(=O)O (stereo not shown) [Example 278, 3-Methyl-2-(3-(4-(3-(3-(trifluoromethyl)phenyl)ureido)phenyl)isoxazole-5-carboxamido)butanoic acid]
- inhibition at 5 µM (At 5 μM): 75 to 100%

Compound: (S)-({3-[4-(6-Fluoro-benzothiazol-2-ylamino)-phenyl]-isoxazole-5-carbothioyl}-amino)-phenyl-acetic acid [Example 55]
- % inhibition of hDGAT1 (At 10 μM): ++ (>50% Inhibition ≦75)

Compound: CC(C)[C@H](NC(=O)c1cc(-c2ccc(NC(=O)Nc3ccc(F)cc3)cc2)no1)C(=O)O [Example 85, (S)-2-[(3-{4-[3-(4-Fluoro-phenyl)-ureido]-phenyl}-isoxazole-5-carbonyl)-amino]-3-methyl-butyric acid]
- inhibition at 10 µM (At 10 μM): 75 to 100%

Compound: CC(C)[C@H](NC(=O)c1cc(-c2ccc(NC(=O)Nc3ccc(F)cc3F)cc2F)no1)C(=O)O [Example 142, (S)-2-(3-(4-(3-(2,4-difluorophenyl)ureido)-2-fluorophenyl)isoxazole-5-carboxamido)-3-methylbutanoic acid]
- inhibition at 5 µM (At 5 μM): 75 to 100%

Compound: Cc1ccc(NC(=O)Nc2ccc(-c3cc(C(=O)NC(Cc4ccccc4)C(=O)O)on3)cc2)cc1 (stereo not shown) [Example 244, 3-Phenyl-2-(3-(4-(3-p-tolylureido)phenyl)isoxazole-5-carboxamido) propanoic acid]
- inhibition at 5 µM (At 5 μM): 50 to 75%

Compound: COC(=O)C(CC(C)C)NC(=O)c1cc(-c2ccc(NC(=O)Nc3ccc(F)cc3F)cc2C)no1 (stereo not shown) [Example 139, Methyl 2-(3-(4-(3-(2,4-difluorophenyl)ureido)-2-methylphenyl)isoxazole-5-carboxamido)-4-methylpentanoate]
- inhibition at 10 µM (At 10 μM): 0 to 50%

Compound: COC(=O)C(NC(=O)c1cc(-c2ccc(NC(=O)Nc3ccc(C(F)(F)F)cc3)cc2)no1)C(C)C (stereo not shown) [Example 275, Methyl 3-methyl-2-(3-(4-(3-(4-(trifluoromethyl)phenyl)ureido)phenyl)isoxazole-5-carboxamido)butanoate]
- inhibition at 5 µM (At 5 μM): 0 to 50%

Compound: CC(C)[C@H](NC(=O)c1cc(-c2ccc(NC(=O)Nc3ccc(Cl)cc3C(F)(F)F)cc2)no1)C(=O)O [Example 215, (S)-2-(3-(4-(3-(4-chloro-2-(trifluoromethyl)phenyl)ureido)phenyl)isoxazole-5-carboxamido)-3-methylbutanoic acid]
- inhibition at 1 µM: 75 to 100%
